According to ChEMBL document CHEMBL3124857, “Encoded library technology as a source of hits for the discovery and lead optimization of a potent and selective class of bactericidal direct inhibitors of Mycobacterium tuberculosis InhA” (J Med Chem, 2014):
≈ marks a conversion by molar mass, not a printed value. Calls of active or inactive are those of the source. No cut-off for these calls is given here.

Key:
[1] = system: Mycobacterium tuberculosis; test: Antitubercular activity against Mycobacterium tuberculosis H37Rv infected in C57BL/6 mouse assessed as reduction of bacterial CFU in lung at 500 to 1000 mg/kg, po administered for 8 days measured 24 hrs post last dose; type: functional, organism-based
[2] = Cmax in C57BL/6J mouse at 1000 mg/kg, po measured at 24 hrs; type: ADME, organism-based; design: dose 1000 mg/kg, route oral; conditions: in vivo
[3] = Total AUC in C57BL/6J mouse at 1000 mg/kg, po measured at 24 hrs; type: ADME, organism-based; design: time AUCmax, dose 1000 mg/kg, route oral; conditions: in vivo
[4] = Oral bioavailability in C57BL/6J mouse at 50 mg/kg; type: ADME, organism-based; conditions: in vivo
[5] = Clearance in C57BL/6J mouse at 4 mg/kg, iv; type: ADME, organism-based; design: dose 4 mg/kg, route intravenous; conditions: in vivo
[6] = Volume of distribution in C57BL/6J mouse at 4 mg/kg, iv; type: ADME, organism-based; design: dose 4 mg/kg, route intravenous; conditions: in vivo
[7] = AUC (0 to infinity) in C57BL/6J mouse at 50 mg/kg, po; type: ADME, organism-based; design: time infinity, dose 50 mg/kg, route oral; conditions: plasma
[8] = Half life in C57BL/6J mouse at 4 mg/kg, iv; type: ADME, organism-based; design: dose 4 mg/kg, route intravenous; conditions: in vivo
[9] = Cmax in C57BL/6J mouse at 50 mg/kg, po; type: ADME, organism-based; design: dose 50 mg/kg, route oral; conditions: in vivo
[10] = Tmax in C57BL/6J mouse at 50 mg/kg, po; type: ADME, organism-based; design: dose 50 mg/kg, route oral; conditions: in vivo
[11] = system: Mycobacterium tuberculosis; test: Bactericidal activity against Mycobacterium tuberculosis H37Rv assessed as log reduction of bacterial CFU at 20 times MIC after 1 week relative to control; type: functional
[12] = system: Mycobacterium tuberculosis; test: Antitubercular activity against Mycobacterium tuberculosis infected in human THP1 cells assessed as growth inhibition after 5 days by luciferase reporter gene assay; type: functional, THP-1; conditions: 120 h
[13] = Plasma protein binding in human at 1 uM after 4 to 6 hrs by LC-MS/MS analysis; type: ADME, cell-free; conditions: read-out: PPB (converted)
Liver microsome = test: Intrinsic clearance in human liver microsomes at 0.5 uM; type: ADME
[14] = Half life in human liver microsomes at 0.5 uM; type: ADME
[15] = Intrinsic clearance in mouse liver microsomes at 0.5 uM; type: ADME, Microsome
[16] = Half life in mouse liver microsomes at 0.5 uM; type: ADME, Microsome
Cytochrome P450 3A4 = Cytochrome P450 3A4 (Homo sapiens, UniProt P08684); test: Inhibition of human CYP3A4 by fluorescence assay; type: ADME
Cytochrome P450 3A4, sequence (P08684 whole entry): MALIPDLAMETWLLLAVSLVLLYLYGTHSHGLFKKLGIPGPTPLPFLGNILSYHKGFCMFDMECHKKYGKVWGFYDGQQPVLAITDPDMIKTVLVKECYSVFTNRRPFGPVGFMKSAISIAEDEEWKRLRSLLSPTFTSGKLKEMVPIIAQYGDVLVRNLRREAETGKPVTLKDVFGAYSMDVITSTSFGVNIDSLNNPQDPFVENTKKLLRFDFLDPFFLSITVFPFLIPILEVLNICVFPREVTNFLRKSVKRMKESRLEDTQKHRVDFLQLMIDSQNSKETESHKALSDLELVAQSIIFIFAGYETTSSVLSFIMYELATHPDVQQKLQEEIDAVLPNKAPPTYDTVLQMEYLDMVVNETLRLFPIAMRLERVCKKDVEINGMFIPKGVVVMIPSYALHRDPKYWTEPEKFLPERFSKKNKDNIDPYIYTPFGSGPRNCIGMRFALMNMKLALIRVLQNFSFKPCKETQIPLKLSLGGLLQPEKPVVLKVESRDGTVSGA

Cytochrome P450 2D6 = Cytochrome P450 2D6 (Homo sapiens, UniProt P10635); test: Inhibition of human CYP2D6 by fluorescence assay; type: ADME
Cytochrome P450 2D6, sequence (P10635 whole entry): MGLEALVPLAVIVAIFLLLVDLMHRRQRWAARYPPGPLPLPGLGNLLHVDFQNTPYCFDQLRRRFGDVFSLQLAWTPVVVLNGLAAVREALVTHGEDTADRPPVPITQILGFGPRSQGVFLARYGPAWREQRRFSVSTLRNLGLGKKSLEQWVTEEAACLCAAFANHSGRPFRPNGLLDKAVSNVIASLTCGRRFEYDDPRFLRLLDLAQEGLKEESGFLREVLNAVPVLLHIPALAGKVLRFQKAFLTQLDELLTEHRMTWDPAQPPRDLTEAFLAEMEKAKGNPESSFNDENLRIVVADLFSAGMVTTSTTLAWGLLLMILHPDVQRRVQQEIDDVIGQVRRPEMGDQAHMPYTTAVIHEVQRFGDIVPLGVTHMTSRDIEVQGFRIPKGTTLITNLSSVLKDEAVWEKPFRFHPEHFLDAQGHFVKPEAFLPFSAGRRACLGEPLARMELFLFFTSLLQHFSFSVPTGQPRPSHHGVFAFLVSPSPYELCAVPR

Cytochrome P450 2C19 = Cytochrome P450 2C19 (Homo sapiens, UniProt P33261); test: Inhibition of human CYP2C19 by fluorescence assay; type: ADME
Cytochrome P450 2C19, sequence (P33261 whole entry): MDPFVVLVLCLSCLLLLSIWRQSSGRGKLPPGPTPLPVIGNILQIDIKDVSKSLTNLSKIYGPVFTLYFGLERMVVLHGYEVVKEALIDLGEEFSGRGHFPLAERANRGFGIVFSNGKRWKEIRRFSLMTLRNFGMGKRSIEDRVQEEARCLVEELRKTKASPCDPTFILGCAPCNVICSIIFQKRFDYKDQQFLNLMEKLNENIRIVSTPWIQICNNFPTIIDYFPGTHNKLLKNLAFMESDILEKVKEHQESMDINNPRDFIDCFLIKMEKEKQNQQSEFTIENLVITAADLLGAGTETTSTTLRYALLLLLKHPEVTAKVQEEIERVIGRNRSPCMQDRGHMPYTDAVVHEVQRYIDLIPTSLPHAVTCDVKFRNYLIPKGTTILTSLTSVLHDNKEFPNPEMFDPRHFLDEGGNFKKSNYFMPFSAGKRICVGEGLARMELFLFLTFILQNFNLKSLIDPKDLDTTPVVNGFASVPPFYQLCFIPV

Cytochrome P450 2C9 = Cytochrome P450 2C9 (Homo sapiens, UniProt P11712); test: Inhibition of human CYP2C9 by fluorescence assay; type: ADME
Cytochrome P450 2C9, sequence (P11712 whole entry): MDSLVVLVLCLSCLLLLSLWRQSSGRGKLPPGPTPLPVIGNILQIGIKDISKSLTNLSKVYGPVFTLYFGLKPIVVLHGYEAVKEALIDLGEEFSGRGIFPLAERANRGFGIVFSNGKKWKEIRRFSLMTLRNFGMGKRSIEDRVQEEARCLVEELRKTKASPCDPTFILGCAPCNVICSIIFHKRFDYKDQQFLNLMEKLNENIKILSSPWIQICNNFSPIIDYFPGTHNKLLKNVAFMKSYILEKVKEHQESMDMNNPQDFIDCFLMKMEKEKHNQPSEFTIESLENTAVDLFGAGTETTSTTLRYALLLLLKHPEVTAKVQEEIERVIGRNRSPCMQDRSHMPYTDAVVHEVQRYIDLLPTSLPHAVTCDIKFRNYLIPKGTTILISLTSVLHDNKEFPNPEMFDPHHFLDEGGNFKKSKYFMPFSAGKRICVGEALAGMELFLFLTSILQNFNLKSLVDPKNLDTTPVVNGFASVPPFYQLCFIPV

Cytochrome P450 1A2 = molecular target: T1, Cytochrome P450 1A2 (Homo sapiens, UniProt P05177); test: Inhibition of human CYP1A2 by fluorescence assay; type: ADME
T1 sequence (P05177 whole entry): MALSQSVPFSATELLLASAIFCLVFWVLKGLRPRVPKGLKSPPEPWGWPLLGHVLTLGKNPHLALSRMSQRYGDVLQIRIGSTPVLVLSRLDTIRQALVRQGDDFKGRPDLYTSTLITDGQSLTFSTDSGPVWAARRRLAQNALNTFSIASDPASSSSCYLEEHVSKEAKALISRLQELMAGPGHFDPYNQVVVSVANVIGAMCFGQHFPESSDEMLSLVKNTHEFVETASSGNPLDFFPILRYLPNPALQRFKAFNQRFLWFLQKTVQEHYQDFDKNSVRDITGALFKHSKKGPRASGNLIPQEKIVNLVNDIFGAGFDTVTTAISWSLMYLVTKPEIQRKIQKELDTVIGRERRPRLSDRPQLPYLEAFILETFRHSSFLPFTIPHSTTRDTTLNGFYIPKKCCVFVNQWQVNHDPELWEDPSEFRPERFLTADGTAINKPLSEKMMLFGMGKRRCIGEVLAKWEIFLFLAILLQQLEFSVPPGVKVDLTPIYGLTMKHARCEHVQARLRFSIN

[17] = Kinetic solubility of the compound after 1 hr by CLND assay; type: physicochemical; conditions: read-out: Kinetic_solubility
[18] = system: Mycobacterium tuberculosis; test: Antitubercular activity against wild type Mycobacterium tuberculosis H37Rv ATCC 25618 assessed as growth inhibition after 6 days by resazurin dye-based assay; type: functional; conditions: H37Rv ATCC 25618, 144 h
[19] = Plasma protein binding in mouse at 1 uM after 4 to 6 hrs by LC-MS/MS analysis; type: ADME, cell-free; conditions: read-out: PPB (converted)
[20] = Permeability of the compound by artificial membrane permeability assay; type: physicochemical; conditions: PAMPA; read-out: permeability
[21] = Lipophilicity, log D of the compound at pH 7.4 by chromatographic analysis; type: physicochemical; conditions: buffer
[22] = molecular target: T2, Enoyl-[acyl-carrier-protein] reductase [NADH] (Mycobacterium tuberculosis, UniProt P9WGR1); test: Inhibition of Mycobacterium tuberculosis full length biotinylated InhA (270 amino acids) using DDCoA as substrate assessed as NADH oxidation by fluorimetric analysis
T2 sequence (P9WGR1 whole entry): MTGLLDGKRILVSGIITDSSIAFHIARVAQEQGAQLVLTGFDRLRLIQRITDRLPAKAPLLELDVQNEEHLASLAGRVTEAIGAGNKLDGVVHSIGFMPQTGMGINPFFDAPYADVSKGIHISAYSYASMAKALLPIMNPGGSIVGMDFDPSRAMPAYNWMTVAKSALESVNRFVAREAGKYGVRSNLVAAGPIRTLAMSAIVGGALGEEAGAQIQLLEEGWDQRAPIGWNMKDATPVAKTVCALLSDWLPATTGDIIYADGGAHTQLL

[23] = system: Mycobacterium tuberculosis; test: Antitubercular activity against Mycobacterium tuberculosis H37Rv infected in C57BL/6 mouse assessed as reduction of bacterial CFU in lung at 30 mg/kg, po administered for 8 days measured 24 hrs post last dose relative to control; type: functional
[24] = system: Mycobacterium tuberculosis; test: Bactericidal activity against Mycobacterium tuberculosis H37Rv assessed as log reduction of bacterial CFU at 1.2 ug/mL after 1 week; type: functional, organism-based
Hepatocyte [25] = test: Drug metabolism in mouse hepatocytes assessed as oxidized metabolite formation; type: ADME, cell-based
Hepatocyte [26] = test: Drug metabolism in human hepatocytes assessed as oxidized metabolite formation; type: ADME, cell-based
Hepatocyte [27] = test: Drug metabolism in human hepatocytes assessed as N-dealkylated pyrazole metabolite formation; type: ADME, cell-based
Hepatocyte [28] = test: Drug metabolism in mouse hepatocytes assessed as N-dealkylated pyrazole metabolite formation; type: ADME, cell-based
Hepatocyte [29] = test: Drug metabolism in mouse hepatocytes assessed as N-dealkylated ethylamide metabolite formation; type: ADME, cell-based
Hepatocyte [30] = test: Drug metabolism in human hepatocytes assessed as N-dealkylated ethylamide metabolite formation; type: ADME, cell-based
[31] = Intrinsic clearance in human hepatocytes at 1 uM; type: ADME, cell-based, Hepatocyte; conditions: read-out: CLH
[32] = Half life in human hepatocytes at 10 uM; type: ADME, cell-based, Hepatocyte
[33] = Intrinsic clearance in mouse hepatocytes at 1 uM; type: ADME, cell-based, Hepatocyte; conditions: read-out: CLH
[34] = Half life in mouse hepatocytes at 10 uM; type: ADME, cell-based, Hepatocyte
HepG2 = test: Cytotoxicity against human HepG2 cells after 48 hrs by resazurin dye-based fluorescence assay; type: cell-based; conditions: HepG2, 48 h
[35] = molecular target: Voltage-gated inwardly rectifying potassium channel KCNH2 (Homo sapiens, UniProt Q12809); test: Displacement of [3H]-dofetilide from human ERG after 1 hr by liquid scintillation counting analysis
Voltage-gated inwardly rectifying potassium channel KCNH2, sequence (Q12809 whole entry): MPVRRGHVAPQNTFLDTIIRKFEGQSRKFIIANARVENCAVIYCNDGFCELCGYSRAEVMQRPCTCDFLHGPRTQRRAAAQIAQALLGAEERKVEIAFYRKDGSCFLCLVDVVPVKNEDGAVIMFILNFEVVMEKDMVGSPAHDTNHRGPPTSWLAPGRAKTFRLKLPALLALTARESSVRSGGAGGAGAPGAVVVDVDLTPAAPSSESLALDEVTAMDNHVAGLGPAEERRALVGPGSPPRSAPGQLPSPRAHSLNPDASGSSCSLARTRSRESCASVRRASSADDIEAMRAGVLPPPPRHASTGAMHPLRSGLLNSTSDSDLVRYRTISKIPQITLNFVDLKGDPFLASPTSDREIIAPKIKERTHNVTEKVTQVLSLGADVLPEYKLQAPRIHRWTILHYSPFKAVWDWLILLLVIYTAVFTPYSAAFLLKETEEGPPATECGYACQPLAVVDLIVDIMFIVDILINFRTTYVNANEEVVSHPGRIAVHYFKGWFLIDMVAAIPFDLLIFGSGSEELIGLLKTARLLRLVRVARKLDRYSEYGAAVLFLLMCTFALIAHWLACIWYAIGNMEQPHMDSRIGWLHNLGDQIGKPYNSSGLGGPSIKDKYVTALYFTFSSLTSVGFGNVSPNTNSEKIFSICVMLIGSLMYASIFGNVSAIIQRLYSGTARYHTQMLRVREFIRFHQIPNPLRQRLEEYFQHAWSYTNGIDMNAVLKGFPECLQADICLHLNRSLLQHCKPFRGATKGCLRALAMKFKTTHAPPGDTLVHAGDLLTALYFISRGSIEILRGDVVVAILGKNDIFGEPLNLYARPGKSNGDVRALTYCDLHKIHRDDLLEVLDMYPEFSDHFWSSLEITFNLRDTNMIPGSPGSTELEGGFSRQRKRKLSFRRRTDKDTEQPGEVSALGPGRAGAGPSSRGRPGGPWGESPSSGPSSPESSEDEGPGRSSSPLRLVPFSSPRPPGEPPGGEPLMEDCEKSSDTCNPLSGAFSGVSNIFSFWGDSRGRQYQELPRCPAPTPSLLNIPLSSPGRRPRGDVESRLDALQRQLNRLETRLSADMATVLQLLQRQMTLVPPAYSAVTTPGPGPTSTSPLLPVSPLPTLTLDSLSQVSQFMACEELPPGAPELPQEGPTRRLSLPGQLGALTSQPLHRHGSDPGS

Streptococcus pyogenes = test: Antibacterial activity against Streptococcus pyogenes assessed as growth inhibition by broth microdilution assay; type: functional
Escherichia coli = test: Antibacterial activity against Escherichia coli assessed as growth inhibition by broth microdilution assay; type: functional
Streptococcus pneumoniae = test: Antibacterial activity against Streptococcus pneumoniae assessed as growth inhibition by broth microdilution assay; type: functional
Moraxella catarrhalis = test: Antibacterial activity against Moraxella catarrhalis assessed as growth inhibition by broth microdilution assay; type: functional
Haemophilus influenzae = test: Antibacterial activity against Haemophilus influenzae assessed as growth inhibition by broth microdilution assay; type: functional
Enterococcus faecalis = test: Antibacterial activity against Enterococcus faecalis assessed as growth inhibition by broth microdilution assay; type: functional
Enterococcus faecium = test: Antibacterial activity against Enterococcus faecium assessed as growth inhibition by broth microdilution assay; type: functional

CCc1cc(C(=O)N[C@@H]2C[C@@H](C(N)=O)N(C(=O)c3coc4ccccc34)C2)n(CC)n1
Activity [1]: inactive | Cmax [2]: 23000 ng/mL | AUC at 24 h [3]: 73700 ng·h/mL | bioavailability [4]: 35.6% | clearance [5]: 85.5 mL/min/kg | Vd [6]: 3.68 L/kg | AUC(0-inf) [7]: 3590 ng·h/mL | half-life [8]: 28.2 min | Cmax [9]: 1750 ng/mL | Tmax [10]: 49.8 min | FC [11]: >2 | MIC [12]: 0.24 µM (≈ 0.102 µg/mL) | fraction unbound at 1 µM [13]: 0.013 | CLH (Liver microsome): < 0.3 mL/min/g | half-life at 0.5 µM [14]: > 30 min | CLH [15]: < 0.3 mL/min/g | half-life at 0.5 µM [16]: > 30 min | IC50 (Cytochrome P450 3A4): > 50 µM | IC50 (Cytochrome P450 2D6): > 50 µM | IC50 (Cytochrome P450 2C19): > 50 µM | IC50 (Cytochrome P450 2C9): > 50 µM | IC50 (Cytochrome P450 1A2): > 50 µM | solubility kinetic at 1 h [17]: > 441 µM | MIC90 [18]: 0.5 µM (≈ 0.212 µg/mL) | fraction unbound at 1 µM [19]: 0.153 | Papp [20]: 7.8 ×10⁻⁶ cm/s | chromatographic logD [21]: 2.94 | IC50 [22]: 0.004 µM

COc1c(N2C[C@@H]3CCCN[C@@H]3C2)c(F)cc2c(=O)c(C(=O)O)cn(C3CC3)c12 [MOXIFLOXACIN]
fold change (FC) [23]: 3.48 | Activity [24]: Active

CCNC(=O)[C@@H]1C[C@@H](NC(=O)c2cc(CC)nn2C)CN1C(=O)c1coc2ccccc12
Drug metabolism (Hepatocyte [25]): Active | Drug metabolism (Hepatocyte [26]): Active | Drug metabolism (Hepatocyte [27]): Active | Drug metabolism (Hepatocyte [28]): Active | Drug metabolism (Hepatocyte [29]): Active | Drug metabolism (Hepatocyte [30]): Active | CLint scaled at 1 µM [31]: 19 mL/min/kg | half-life at 10 µM [32]: 227 min | CLint scaled at 1 µM [33]: 538 mL/min/kg | half-life at 10 µM [34]: 27 min | CLH (Liver microsome): 0.7 mL/min/g | half-life at 0.5 µM [14]: > 30 min | CLH [15]: 2.6 mL/min/g | half-life at 0.5 µM [16]: 28 min | IC50 (Cytochrome P450 3A4): > 50 µM | IC50 (Cytochrome P450 2D6): > 50 µM | IC50 (Cytochrome P450 2C19): > 50 µM | IC50 (Cytochrome P450 2C9): > 50 µM | IC50 (Cytochrome P450 1A2): > 50 µM | IC50 (HepG2): > 50 µM | IC50 [35]: > 50 µM | MIC (Streptococcus pyogenes): > 64 µM | MIC (Escherichia coli): > 64 µM | MIC (Streptococcus pneumoniae): > 64 µM | MIC (Moraxella catarrhalis): > 64 µM | MIC (Haemophilus influenzae): > 64 µM | MIC (Enterococcus faecalis): > 64 µM | MIC (Enterococcus faecium): > 64 µM | solubility kinetic at 1 h [17]: > 448 µM | MIC [18]: 8 µM (≈ 3.5 µg/mL) | fraction unbound at 1 µM [19]: 0.144 | Papp [20]: 13 ×10⁻⁶ cm/s | chromatographic logD [21]: 2.93 | IC50 [22]: 0.034 µM
